Measured values as given in patent publication US6716436B1, “Cosmetic composition for slimming containing L-arginine, an L-arginine analogue, or one of their derivatives, for topical application” (Exsymol S.A.M., priority 1999, dated 2004).
Like-named read-outs stand apart in the source and are kept apart here.

Tests used:
[1] = tested on: rats ZUCKER fa/fa; experiment: Test in vivo on rats (weight and measurement over 5 weeks); conditions: group II ionisation every two days
Source text: Three groups of 4 rats ZUCKER fa/fa defined in an homogeneous way were placed in the animal house at 8 weeks. The experiment begins when the rats have reached 9 weeks and similar weights (240±15 g); they are placed in individual cage with water and food ad libidum. The whole of the rats are circularly hair removed on median part in order to tattoo an axis between the neck and the tail. On a group N^o I, the emulsion described in example 1 is daily applied on the hair-removed part until absorption with removing the excess. […] A third group is used as the control (group C). These experiments are carried out during 5 weeks.

[2] = Comparative study of cutaneous diffusion (diffusion cell); conditions: solution at 30 mM, 0.2 ml by cm^2 on hairless rat skin; L-arginine dosed by HPLC in dialysate
Description: (§1) Hairless rats are sacrified by intra-cardiac injection of pentobarbital; the ventral skin is recollected and hypodermis is removed with a scalpel. 0.2 ml by cm^2 of the solution to be tested are dropped on a piece of skin (dermis and epidermis) which is set on a diffusion cell. The diffusion is tested in comparison with phosphate buffer containing 0.5% of tween 20.
(§2) At different times, the phosphate buffer is replaced and L-arginine is dosed by HPLC in the recollected dialysate fractions.

[3] = tested on: Segments of perirenal adipose tissue; experiment: Lipolytic activity in vitro (glycerol liberation); assay type: cell-based, male rabbits; conditions: rabbit perirenal adipose tissue, 37° C.
Description: The in vitro lipolytic activity of solutions containing compounds according to the invention is tested (Solutions at 4%).
Segments of perirenal adipose tissue of male rabbits are incubed in a Krebs-Ringer bicarbonate buffer pH 7.4, which contains 5,5 mM glucose, 40 mg/ml of bovin albumin serum. The total volume of incubation is 3 ml with the substance to be tested prepared in 0.01 M of NH4HCO3 and additionned in a volume of 0.1 ml. The preparations are stirred at 37° C., under a 95% O2, 5% CO2 atmosphere.
The lipolytic activity levels are quantified by glycerol liberation in the incubation medium and are expressed by gramme of lipid. The glycerol is dosed in duplicate by enzymatic method: glycerokinase, glycerophosphate deshydrogenase (Boerhinger-Mannheim), method of Wieland (32), modified by Vaughan (33).

[4] = hairless, rat, 30 mM
Description: as §1, §2

N=C(N)NCCC[C@H](N)C(=O)O.O=C(O)c1ccccc1O [Group II, arginium salicylate]
Meas ([1]; Week 1, group I daily topical): 189.75 mm
Weight ([1]; Week 1, group I daily topical): 280.25 g
Meas ([1]; Week 2, group I daily topical): 213.25 mm
Weights ([1]; Week 2, group I daily topical): 318.25 g
Meas ([1]; Week 3, group I daily topical): 224.25 mm
Weights ([1]; Week 3, group I daily topical): 345.5 g
Meas ([1]; Week 4, group I daily topical): 233.25 mm
Weights ([1]; Week 4, group I daily topical): 367.25 g
Meas ([1]; Week 5, group I daily topical): 238.5 mm
Weights ([1]; Week 5, group I daily topical): 386.25 g

CC(C)(C)C(=O)OCOC(=O)[C@@H](N)CCCNC(=N)N [L-arginylpivalloyoxymethylester]
% of diffusion after 5h [2]: 51%

C[Si](O)(O)OC(=O)C(N)CCCNC(=N)N [Monomethylsilanediol of L-arginine]
Glycerol ([3]; 15 mg/L): 1 ± 0.5 nmoles/g of lipids
Glycerol ([3]; 30 mg/L): 2.40 ± 0.35 nmoles/g of lipids
Glycerol ([3]; 45 mg/L): 2.5 ± 0.35 nmoles/g of lipids
% of diffusion after 5h [4]: 42%
